From patent US10441663B2, “Methods for treating cancer” (Bicycle Therapeutics Limited, priority 2016, dated 2019)
*1 amine or outer side, *2 acyl side, *3 side chain or, on linkers, in order; H or OH if unused. Where a SMILES comes first, the peptide text is derived from it. Bridges are numbered along the chain shown (N, C = ends). [ ]: non-standard residue; d: D form. The star is where a group is joined. X1 = COc1cc2cc(c1Cl)N(C)C(=O)C[C@H](OC(=O)[C@H](C)N(C)C(=O)CCSSC(C)CCC(=O)*)[C@]1(C)O[C@H]1[C@H](C)[C@@H]1C[C@@](O)(NC(=O)O1)[C@H](OC)/C=C/C=C(\C)C2; 1Nal = N[C@@H](Cc1cccc2ccccc12)C(=O)O; TBMB = c1c(C[*:1])cc(C[*:3])cc1C[*:2]; Tle = CC(C)(C)[C@H](N)C(=O)O; βAla = NCCC(=O)O; Sar = CNCC(=O)O

System: MDA-MB-231 xenograft
Experiment: In vivo efficacy of BT1718 in MDA-MB-231 xenograft
Design: species or system Mus Musculus; key to Best response at 10 mg/kg: CR complete response; PR partial response
Description: The objective of this study was to evaluate the in vivo anti-tumor efficacy of BT1718in treatment of HT1080, NCI-H292, NCI-H1975, MDA-MB-231, HCC1806, RPMI2650, HCT-15, HT-29 and SNU-16 xenograft in BALB/c nude mice.
The HT1080, NCI-H292, NCI-H1975, MDA-MB-231, HCC1806, RPMI2650, HCT-15, HT-29 and SNU-16 tumor cells were maintained in vitro as a monolayer culture in medium supplemented with 10% heat inactivated fetal bovine serum at 37° C. in an […]. The tumor cells will be routinely subcultured twice weekly by trypsin-EDTA treatment. The cells growing in an exponential growth phase will be harvested and counted for tumor inoculation.
Mouse was inoculated subcutaneously at the right flank with tumor cells for tumor development. The animals were randomized and treatment was started when the average tumor reaches certain volume for the efficacy study, the inoculating cell amounts and starting tumor size were shown as below in Table 9. The test article administration and the animal numbers in each group were shown in the experimental design in Table 10.
All the procedures related to animal handling, care and the treatment in the study were performed according to the guidelines of the Association for Assessment and Accreditation of Laboratory Animal Care (AAALAC). At the time of routine monitoring, the animals were daily checked for any effects of tumor growth and treatments on normal behavior such as mobility, food and water consumption (by looking only), body weight gain/loss (body weights were measured every day), eye/hair matting and any other abnormal effect as stated in the protocol. Death and observed clinical signs were recorded on the basis of the numbers of animals within each subset.
The major endpoint was to see if the tumor growth could be delayed or mice could be cured. Tumor size was measured three times weekly in two dimensions using a caliper, and the volume was expressed in mm^3 using the formula: V=0.5 a×b^2 where a and b are the long and short diameters of the tumor, respectively. The tumor size was then used for calculations of T/C value. The T/C value (in percent) is an indication of antitumor effectiveness; T and C are the mean volumes of the treated and control groups, respectively, on a given day.
TGI was calculated for each group using the formula: TGI (%)=[1−(Ti−T0)/(Vi−V0)]×100; Ti is the average tumor volume of a treatment group on a given day, T0 is the average tumor volume of the treatment group on the day of treatment start, Vi is the average tumor volume of the vehicle control group on the same day with Ti, and V0 is the average tumor volume of the vehicle group on the day of treatment start.
Summary statistics, including mean and the standard error of the mean (SEM), are provided for the tumor volume of each group at each time point.
Statistical analysis of difference in tumor volume among the groups was conducted on the data obtained at the best therapeutic time point after the final dose.
A one-way ANOVA was performed to compare tumor volume among groups, and when a significant F-statistics (a ratio of treatment variance to the error variance) was obtained, comparisons between groups were carried out with Games-Howell test. All data were analyzed using Prism. P<0.05 was considered to be statistically significant.

[1] = MDA-MB-231, 10 mpk, biw, day 14

For `COc1cc2cc(c1Cl)N(C)C(=O)C[C@H](OC(=O)[C@H](C)N(C)C(=O)CCSSC(C)CCC(=O)NCCC(=O)N(C)CC(=O)N(C)CC(=O)N(C)CC(=O)N(C)CC(=O)N(C)CC(=O)N(C)CC(=O)N(C)CC(=O)N(C)CC(=O)N(C)CC(=O)N(C)CC(=O)N[C@@H](C)C(=O)N[C@H]1CSCc3cc4cc(c3)CSC[C@H](NC(=O)[C@@H](C)NC(=O)[C@H](Cc3cccc5ccccc35)NC(=O)[C@H](CCC(=O)O)NC(=O)[C@H](CC(N)=O)NC(=O)[C@@H](C)NC1=O)C(=O)N[C@@H](CCC(=O)O)C(=O)N[C@@H](CC(=O)O)C(=O)N[C@@H](Cc1ccccc1)C(=O)N[C@@H](Cc1ccc(O)cc1)C(=O)N[C@@H](CC(=O)O)C(=O)N[C@@H](C(C)(C)C)C(=O)N[C@H](C(N)=O)CSC4)[C@]1(C)O[C@H]1[C@H](C)[C@@H]1C[C@@](O)(NC(=O)O1)[C@H](OC)/C=C/C=C(\C)C2` (stereo partly shown) [BT1718] ({X1-βAla}-[Sar][Sar][Sar][Sar][Sar][Sar][Sar][Sar][Sar][Sar]AC[dA]NE[1Nal][dA]CEDFYD[Tle]C-NH2; linker 12-18-25 via TBMB (inferred)), the “tumor behaviour on resumed treatment” value (10 mg/kg biw re-treatment) was “slow re-growth”, the “Body Weight” value (1 mpk biw, day 0) was 23.4 ± 0.5 g and the “Tumor Volume” value (1 mpk biw, day 0) was 187 ± 6 mm^3. The “Body Weight” value (1 mpk biw, day 2) was 23.3 ± 0.6 g, the “Tumor Volume” value (1 mpk biw, day 2) was 288 ± 25 mm^3 and the “Body Weight” value (1 mpk biw, day 4) was 23.3 ± 0.6 g. For the same compound, the “Tumor Volume” value (1 mpk biw, day 4) was 435 ± 25 mm^3, the “Body Weight” value (1 mpk biw, day 7) was 24.6 ± 0.5 g and the “Tumor Volume” value (1 mpk biw, day 7) was 636 ± 53 mm^3. For the same compound, the “Body Weight” value (1 mpk biw, day 9) was 24.6 ± 0.6 g, the “Tumor Volume” value (1 mpk biw, day 9) was 822 ± 117 mm^3 and the “Body Weight” value (1 mpk biw, day 11) was 24.1 ± 0.1 g. For the same compound, the “Tumor Volume” value (1 mpk biw, day 11) was 979 ± 51 mm^3, the “Body Weight” value (1 mpk biw, day 14) was 24.9 ± 0.5 g and the “Tumor Volume” value (1 mpk biw, day 14) was 1221 ± 62 mm^3. For the same compound, the “Body Weight” value (3 mpk biw, day 0) was 23.0 ± 0.9 g, the “Tumor Volume” value (3 mpk biw, day 0) was 187 ± 11 mm^3 and the “Body Weight” value (3 mpk biw, day 2) was 22.5 ± 1.0 g. The “Tumor Volume” value (3 mpk biw, day 2) was 281 ± 23 mm^3, the “Body Weight” value (3 mpk biw, day 4) was 22.3 ± 1.0 g and the “Tumor Volume” value (3 mpk biw, day 4) was 389 ± 21 mm^3. The “Body Weight” value (3 mpk biw, day 7) was 23.8 ± 1.1 g, the “Tumor Volume” value (3 mpk biw, day 7) was 547 ± 38 mm^3 and the “Body Weight” value (3 mpk biw, day 9) was 23.8 ± 1.1 g. The “Tumor Volume” value (3 mpk biw, day 9) was 729 ± 74 mm^3, the “Body Weight” value (3 mpk biw, day 11) was 23.6 ± 1.1 g and the “Tumor Volume” value (3 mpk biw, day 11) was 829 ± 79 mm^3. The “Body Weight” value (3 mpk biw, day 14) was 23.9 ± 1.3 g, the “Tumor Volume” value (3 mpk biw, day 14) was 1021 ± 65 mm^3 and the “Body Weight” value (10 mpk biw, day 0) was 23.3 ± 1.0 g. The “Tumor Volume” value (10 mpk biw, day 0) was 187 ± 10 mm^3, the “Body Weight” value (10 mpk biw, day 2) was 22.9 ± 1.3 g and the “Tumor Volume” value (10 mpk biw, day 2) was 270 ± 25 mm^3. The “Body Weight” value (10 mpk biw, day 4) was 22.2 ± 0.9 g, the “Tumor Volume” value (10 mpk biw, day 4) was 312 ± 27 mm^3 and the “Body Weight” value (10 mpk biw, day 7) was 23.3 ± 1.2 g. The “Tumor Volume” value (10 mpk biw, day 7) was 294 ± 31 mm^3, the “Body Weight” value (10 mpk biw, day 9) was 23.0 ± 1.1 g and the “Tumor Volume” value (10 mpk biw, day 9) was 248 ± 23 mm^3. The “Body Weight” value (10 mpk biw, day 11) was 21.6 ± 1.0 g, the “Tumor Volume” value (10 mpk biw, day 11) was 204 ± 19 mm^3 and the “Body Weight” value (10 mpk biw, day 14) was 24.3 ± 1.1 g. For the same compound, the “Tumor Volume” value (10 mpk biw, day 14) was 158 ± 20 mm^3, the “Best response at 10 mg/kg” value (MDA-MB-231, 10 mg/kg) was “CR” and the TGI (MDA-MB-231, 1 mpk, biw, day 14) was 7.6%. For the same compound, the “Tumor Volume” value (MDA-MB-231, 1 mpk, biw, day 14) was 1221 ± 62 mm^3, the TGI (MDA-MB-231, 3 mpk, biw, day 14) was 25.5% and the “Tumor Volume” value (MDA-MB-231, 3 mpk, biw, day 14) was 1021 ± 65 mm^3. For the same compound, the TGI [1] was 102.6%, the “Tumor Volume” value [1] was 158 ± 20 mm^3 and the “Minimally Effective Dose IV BIW” value (MDA-MB-231, dose leading to tumor-stasis) was <10 mg/kg. For the same compound, the “dosing suspension until re-growth to 150 mm3” value (after 10 mg/kg biw) was 3 weeks.
